# Assay results: ChEMBL document CHEMBL4396894, “The photodynamic activities of dimethyl 131-[2-(guanidinyl)ethylamino] chlorin e6 photosensitizers in A549 tumor” (Eur J Med Chem, 2019)
# Activity calls are given as the source filed them. The rule behind the calls is not given here.
# Legend:
# A549 [1] = test: Photodynamic cytotoxicity against human A549 cells assessed as reduction in cell viability preincubated for 24 hrs followed by compound washout and subsequent 650 nanometer laser light irradiation at 1 J/cm2 measured by MTT assay; type: functional, cell-based; settings: A549, light or radiation study
# A549 [2] = test: Photodynamic cytotoxicity against human A549 cells assessed as reduction in cell viability preincubated for 24 hrs followed by compound washout and subsequent 650 nanometer laser light irradiation at 0.5 J/cm2 measured by MTT assay; type: functional, cell-based; settings: A549, light or radiation study
# A549 [3] = test: Photodynamic cytotoxicity against human A549 cells assessed as reduction in cell viability preincubated for 24 hrs followed by compound washout and subsequent 650 nanometer laser light irradiation at 2 J/cm2 measured by MTT assay; type: functional, cell-based; settings: A549, light or radiation study
# A549 [4] = test: Dark toxicity in human A549 cells xenografted in BALB/c nude mouse assessed as reduction in tumor growth at 0.15 mg/kg, iv measured up to 14 days; type: organism-based; settings: in vivo, 336 h
# A549 [5] = test: Photodynamic antitumor activity against human A549 cells xenografted in BALB/c nude mouse assessed as decrease in tumor weight at 0.15 mg/kg, iv irradiated with laser light at 120 J/cm2 measured 13 days post light irradiation; type: functional, organism-based
# A549 [6] = test: Dark toxicity in human A549 cells assessed as reduction in cell viability at 0.1 to 0.9 uM after 24 hrs by MTT assay; type: cell-based; settings: a549, 24 h
# A549 [7] = test: Photodynamic antitumor activity against human A549 cells xenografted in BALB/c nude mouse assessed as decrease in tumor growth at 0.15 mg/kg, iv irradiated with laser light at 120 J/cm2 measured up to 14 days; type: functional, organism-based
# A549 [8] = test: Photodynamic cytotoxicity against human A549 cells assessed as reduction in cell viability at 0.1 to 0.9 uM preincubated for 24 hrs followed by compound washout and subsequent 650 nanometer laser light irradiation at 0.5 to 2 J/cm2 measured by MTT assay; type: functional, cell-based
# [9] = Induction of singlet oxygen generation in DMF solution assessed as singlet oxygen quantum yield irradiated with 650 nanometer laser light for 5 to 30 secs measured immediately by DPBF-based assay; type: functional
# [10] = Absorption property of the compound in DMSO assessed as maximum absorption wavelength at 1 to 20 uM by UV-Vis spectra analysis; type: physicochemical
# A549 [11] = test: Photodynamic antitumor activity against human A549 cells xenografted in BALB/c nude mouse assessed as increase in tumor tissue damage at 0.15 mg/kg, iv irradiated with laser light at 120 J/cm2 measured 24 hrs post light irradiation by H and E staining based histological analysis; type: functional, organism-based
# A549 [12] = test: Induction of intracellular ROS generation in human A549 cells at 1 uM preincubated for 4 hrs followed by compound washout measured under 650 nanometer laser light irradiation at 2 J/cm2 by DCFDA dye-based fluorescence microscopic analysis; type: functional, cell-based
# A549 [13] = test: Photodynamic antitumor activity against human A549 cells xenografted in BALB/c nude mouse assessed as increase in tumor tissue damage at 0.15 mg/kg, iv irradiated with laser light at 120 J/cm2 measured 24 hrs post light irradiation by TUNEL staining based histological analysis; type: functional, organism-based
# [14] = Drug localization in mitochondria of human A549 cells at 1 uM after 4 hrs by mito-tracker green based laser confocal microscopic analysis; type: ADME; settings: a549, 4 h
# A549 [15] = test: Photodynamic antitumor activity against human A549 cells xenografted in BALB/c nude mouse assessed as increase in apoptosis at 0.15 mg/kg, iv irradiated with laser light at 120 J/cm2 measured 24 hrs post light irradiation by TUNEL staining based histological analysis; type: functional, organism-based
# [16] = Drug uptake in human A549 cells measured after 1 to 24 hrs by fluorescence spectrophotometry; type: ADME, cell-based
# A549 [17] = test: Photodynamic antitumor activity against human A549 cells xenografted in BALB/c nude mouse assessed as increase in necrosis at 0.15 mg/kg, iv irradiated with laser light at 120 J/cm2 measured 24 hrs post light irradiation by TUNEL staining based histological analysis; type: functional, organism-based
# A549 [18] = test: Photodynamic cytotoxicity against human A549 cells assessed as reduction in cell viability preincubated for 24 hrs followed by compound washout and subsequent 650 nanometer laser light irradiation at 0.5 to 2 J/cm2 measured by MTT assay; type: functional, cell-based
# [19] = Drug localization in endoplasmic reticulum of human A549 cells at 1 uM after 4 hrs by DiOC6(3) ER-tracker green based laser confocal microscopic analysis; type: ADME, subcellular; settings: a549, 4 h
# [20] = Drug localization in lysosome of human A549 cells at 1 uM after 4 hrs by lyso-tracker blue based laser confocal microscopic analysis; type: ADME, subcellular; settings: a549, 4 h
# A549 [21] = test: Dark toxicity in human A549 cells xenografted in BALB/c nude mouse assessed as increase in limb tumor tissue damage at 0.15 mg/kg, iv measured 24 hrs post treatment by TUNEL staining based histological assay; type: organism-based; settings: in vivo
# A549 [22] = test: Photodynamic antitumor activity against human A549 cells xenografted in BALB/c nude mouse assessed as increase in necrosis at 0.15 mg/kg, iv irradiated with laser light at 120 J/cm2 measured 24 hrs post light irradiation by H and E staining based histological analysis; type: functional, organism-based
# A549 [23] = test: Dark toxicity in human A549 cells xenografted in BALB/c nude mouse assessed as increase in limb tumor tissue damage at 0.15 mg/kg, iv measured 24 hrs post treatment by H and E staining based histological assay; type: organism-based; settings: in vivo
# [24] = Emission property of a compound in DMSO assessed as red shift at 5 uM by 3D fluorescence spectra analysis; type: physicochemical
# [25] = Photobleaching property of the compound in DMSO at 10 uM irradiated with 650 nm laser light measured up to 90 mins by absorption spectra analysis
# A549 [26] = test: Photodynamic antitumor activity against human A549 cells xenografted in BALB/c nude mouse assessed as increase in apoptosis at 0.15 mg/kg, iv irradiated with laser light at 120 J/cm2 measured 24 hrs post light irradiation by H and E staining based histological analysis; type: functional, organism-based
# A549 [27] = test: Photodynamic antitumor activity against human A549 cells xenografted in BALB/c nude mouse assessed as tumor growth inhibition at 0.4 mg/kg, iv irradiated with laser light at 120 J/cm2 measured up to 14 days; type: functional; settings: A549, light or radiation study, 336 h, read-out: TGI
Activity [10],Drug uptake [14],Drug uptake [16],Drug uptake [19],Drug uptake [20],Structure (SMILES),IC50 (A549 [1]),IC50 (A549 [2]),IC50 (A549 [3]),Activity (A549 [4]),Activity (A549 [5]),Activity (A549 [6]),Activity (A549 [7]),Activity [9],Activity (A549 [11]),Activity (A549 [12]),Activity (A549 [13]),Activity (A549 [15]),Activity (A549 [17]),Activity (A549 [18]),Activity (A549 [21]),also measured
–,–,–,–,–,Oc1cccc(-c2c3nc(c(-c4cccc(O)c4)c4ccc([nH]4)c(-c4cccc(O)c4)c4nc(c(-c5cccc(O)c5)c5ccc2[nH]5)CC4)C=C3)c1 [TEMOPORFIN],779 nM,1100 nM,702 nM,Non-Toxic,Active,Non-Toxic,Active,0.47 to 0.48,–,–,–,–,–,–,–,Activity (A549 [8]): Active
403 to 664 nm,Active,Active,Active,Active,C=Cc1c(C)c2cc3nc(c(CC(=O)OC)c4[nH]c(cc5nc(cc1[nH]2)C(C)=C5CC)c(C)c4C(=O)NCCNC(=N)N)[C@@H](CCC(=O)OC)[C@@H]3C,886 nM,1260 nM,545 nM,Non-Toxic,Active,Non-Toxic,Active,2.03,Active,Active,Active,Active,Active,Dose-dependent effect,Non-Toxic,Activity (A549 [22]): Active; Activity (A549 [23]): Non-Toxic; Activity [24]: 4 nm; Activity [25]: inactive; Activity (A549 [26]): Active; inhibition in vivo at 0.4 mg/kg (A549 [27]): 100%
403 to 664 nm,Active,Active,Active,Active,C=Cc1c(C)c2cc3nc(c(CC(=O)OC)c4[nH]c(cc5nc(cc1[nH]2)C(C)=C5CC)c(C)c4C(=O)NCCN/C(=N\C(=O)OC(C)(C)C)NC(=O)OC(C)(C)C)[C@@H](CCC(=O)OC)[C@@H]3C,397 nM,542 nM,197 nM,Non-Toxic,Active,Non-Toxic,Active,1.98,Active,Active,Active,Active,Active,Dose-dependent effect,Non-Toxic,Activity (A549 [22]): Active; Activity (A549 [23]): Non-Toxic; Activity [24]: 4 nm; Activity [25]: inactive; Activity (A549 [26]): Active; inhibition in vivo at 0.4 mg/kg (A549 [27]): 100%
